Measured values from US20160222014A1, “COMPOUNDS FOR REGULATING FAK AND/OR SRC PATHWAYS” (ASANA BIOSCIENCES, LLC, priority 2013, published 2016).

Experiments:
Recombinant Src enzyme = molecular target: T1, Recombinant Src enzyme (Homo sapiens, UniProt P12931); assay: Src HTRF assay; format: biochemical
T1 construct: purchased Millipore 14-326; host or cells: Sf21 insect cells
Summary of the method: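 Sf21-expressed recombinant Src at 5 nM final with biotinylated N-terminally tagged Tyk2 peptide substrate at 0.5 μM final; a component freshly made in enzyme assay buffer pH7.4 was used at 10 μM final. Buffer, supplements, compound handling and procedure as in the FAK HTRF assay; dasatinib included.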

JAK2 = JAK2 (Homo sapiens, UniProt O60674); assay: JAK2 biochemical potency; settings: read-out: JAK2 HTRF IC50
Chain of JAK2 (O60674 whole entry, species assumed): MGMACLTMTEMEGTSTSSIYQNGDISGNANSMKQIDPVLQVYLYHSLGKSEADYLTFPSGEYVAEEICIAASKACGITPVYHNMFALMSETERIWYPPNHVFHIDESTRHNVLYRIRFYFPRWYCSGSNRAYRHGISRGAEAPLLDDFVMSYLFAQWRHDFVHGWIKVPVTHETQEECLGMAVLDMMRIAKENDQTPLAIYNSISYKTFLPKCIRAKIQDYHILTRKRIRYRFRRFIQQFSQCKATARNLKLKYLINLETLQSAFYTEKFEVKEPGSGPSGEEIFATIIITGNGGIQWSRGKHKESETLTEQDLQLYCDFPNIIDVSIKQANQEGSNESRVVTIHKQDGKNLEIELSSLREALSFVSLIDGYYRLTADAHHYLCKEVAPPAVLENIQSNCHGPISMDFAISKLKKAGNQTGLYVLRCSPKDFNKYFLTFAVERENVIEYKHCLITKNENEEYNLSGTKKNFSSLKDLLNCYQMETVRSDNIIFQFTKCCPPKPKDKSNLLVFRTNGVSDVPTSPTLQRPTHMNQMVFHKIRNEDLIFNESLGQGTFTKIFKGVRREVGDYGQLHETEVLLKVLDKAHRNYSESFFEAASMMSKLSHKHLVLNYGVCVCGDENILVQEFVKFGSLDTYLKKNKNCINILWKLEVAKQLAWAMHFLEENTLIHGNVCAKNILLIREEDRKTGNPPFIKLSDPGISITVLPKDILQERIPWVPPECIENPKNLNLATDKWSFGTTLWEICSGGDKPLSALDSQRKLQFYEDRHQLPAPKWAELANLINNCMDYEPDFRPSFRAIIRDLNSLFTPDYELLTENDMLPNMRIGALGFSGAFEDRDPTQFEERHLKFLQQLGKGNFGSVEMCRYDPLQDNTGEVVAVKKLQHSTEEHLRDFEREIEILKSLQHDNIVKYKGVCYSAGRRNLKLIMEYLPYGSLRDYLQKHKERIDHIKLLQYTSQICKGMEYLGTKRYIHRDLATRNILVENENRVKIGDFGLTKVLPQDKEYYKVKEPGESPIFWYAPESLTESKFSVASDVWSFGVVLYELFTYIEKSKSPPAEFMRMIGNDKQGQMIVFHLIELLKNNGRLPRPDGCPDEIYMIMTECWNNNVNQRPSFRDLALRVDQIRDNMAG

AURKB (Aurora B) enzyme = molecular target: T2, AURKB (Aurora B) enzyme (Homo sapiens, UniProt Q96GD4); assay: Aurora B HTRF assay; format: biochemical; settings: read-out: AuroraB IC50
T2 construct: purchased Invitrogen PVR 130
T2 sequence (Q96GD4 whole entry): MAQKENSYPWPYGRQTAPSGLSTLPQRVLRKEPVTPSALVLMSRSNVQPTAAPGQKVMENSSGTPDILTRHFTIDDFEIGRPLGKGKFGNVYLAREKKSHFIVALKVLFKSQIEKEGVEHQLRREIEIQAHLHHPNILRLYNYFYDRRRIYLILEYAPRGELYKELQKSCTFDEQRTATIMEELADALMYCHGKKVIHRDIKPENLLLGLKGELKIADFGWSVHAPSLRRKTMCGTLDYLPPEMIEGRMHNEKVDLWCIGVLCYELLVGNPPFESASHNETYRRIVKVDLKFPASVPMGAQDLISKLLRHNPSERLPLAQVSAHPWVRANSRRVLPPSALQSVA
Summary of the method: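 HTRF kinase assay with 5 nM Aurora B and 50 nM ULight-PLK (Ser137) peptide, with a reagent at 30 μM final; 1 h at rt. Reaction stopped with EDTA, and phospho-peptide detected with 2 nM Eu-anti-P-PLK(Ser137) antibody after 1 h at rt, read as HTRF.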

[1] = molecular target: T3, FAK phosphorylated at Y397 in HEK-FAK cell line overexpressing human FL FAK protein (Homo sapiens, UniProt Q05397); assay: Cell based assay, Phospho-FAK ELISA; settings: HEK stb; read-out: pFAK EC50 (μM) HEK stb
T3 construct: expressed in transfected cells
T3 sequence (Q05397 whole entry): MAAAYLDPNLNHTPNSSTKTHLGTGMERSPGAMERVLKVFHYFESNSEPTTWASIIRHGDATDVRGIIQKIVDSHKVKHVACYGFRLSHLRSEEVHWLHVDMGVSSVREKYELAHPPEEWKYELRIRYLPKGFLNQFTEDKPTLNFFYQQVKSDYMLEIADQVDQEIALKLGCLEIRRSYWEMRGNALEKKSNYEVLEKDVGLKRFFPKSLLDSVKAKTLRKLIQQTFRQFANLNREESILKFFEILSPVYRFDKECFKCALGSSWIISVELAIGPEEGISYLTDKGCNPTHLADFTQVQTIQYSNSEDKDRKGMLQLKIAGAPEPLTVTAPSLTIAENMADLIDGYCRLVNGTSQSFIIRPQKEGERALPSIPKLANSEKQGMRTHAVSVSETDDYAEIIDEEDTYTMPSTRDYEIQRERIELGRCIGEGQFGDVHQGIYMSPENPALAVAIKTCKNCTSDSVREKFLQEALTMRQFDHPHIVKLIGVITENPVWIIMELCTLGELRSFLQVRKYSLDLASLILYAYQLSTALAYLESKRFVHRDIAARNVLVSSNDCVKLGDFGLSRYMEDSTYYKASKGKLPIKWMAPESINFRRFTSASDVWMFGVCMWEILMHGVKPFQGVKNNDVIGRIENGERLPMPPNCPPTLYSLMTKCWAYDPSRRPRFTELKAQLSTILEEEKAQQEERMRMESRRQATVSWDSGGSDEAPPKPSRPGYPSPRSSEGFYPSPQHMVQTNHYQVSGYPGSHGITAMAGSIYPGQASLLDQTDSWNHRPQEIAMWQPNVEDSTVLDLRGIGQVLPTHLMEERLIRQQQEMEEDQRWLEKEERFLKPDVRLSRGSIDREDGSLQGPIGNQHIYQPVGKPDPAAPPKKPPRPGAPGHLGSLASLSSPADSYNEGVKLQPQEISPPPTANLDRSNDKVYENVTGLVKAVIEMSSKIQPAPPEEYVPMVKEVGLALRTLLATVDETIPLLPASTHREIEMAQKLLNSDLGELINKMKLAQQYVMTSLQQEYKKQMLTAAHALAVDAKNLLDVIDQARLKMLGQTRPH
Summary of the method: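 Stable HEK293 line overexpressing full-length human FAK, kept under 0.8 mg/mL Zeocin. In lysates, FAK Y397 autophosphorylation was measured by sandwich ELISA: total-FAK capture antibody, biotinylated pY397-specific detection antibody, streptavidin-HRP with TMB substrate.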

recombinant human FAK1 = molecular target: T4, recombinant human FAK1 (Homo sapiens, UniProt Q05397); assay: FAK1 HTRF assay; format: biochemical
T4 construct: fused on or other part: N-terminal 6xHis tag
T4 sequence (Q05397 422-680 limits assumed): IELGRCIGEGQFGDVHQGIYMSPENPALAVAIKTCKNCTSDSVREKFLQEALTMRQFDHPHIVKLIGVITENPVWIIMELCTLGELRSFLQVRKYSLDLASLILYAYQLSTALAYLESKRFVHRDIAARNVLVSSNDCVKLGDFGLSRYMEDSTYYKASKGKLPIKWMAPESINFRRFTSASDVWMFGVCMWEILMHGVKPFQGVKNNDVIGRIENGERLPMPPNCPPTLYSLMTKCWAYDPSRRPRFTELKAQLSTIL
Summary of the method: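 His-tagged human FAK1 (residues 692–end, Sf9-expressed), 10 nM final, with 0.5 μM biotinylated gastrin-precursor Tyr87 peptide and a 10 μM final reagent in pH 7.4 buffer, 45 min at rt. Detection used Eu anti-pTyr antibody plus SA-APC (665/620 nm). Compounds top concentration 10 μM; IC50 from % inhibition.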

T1 sequence (P12931 whole entry): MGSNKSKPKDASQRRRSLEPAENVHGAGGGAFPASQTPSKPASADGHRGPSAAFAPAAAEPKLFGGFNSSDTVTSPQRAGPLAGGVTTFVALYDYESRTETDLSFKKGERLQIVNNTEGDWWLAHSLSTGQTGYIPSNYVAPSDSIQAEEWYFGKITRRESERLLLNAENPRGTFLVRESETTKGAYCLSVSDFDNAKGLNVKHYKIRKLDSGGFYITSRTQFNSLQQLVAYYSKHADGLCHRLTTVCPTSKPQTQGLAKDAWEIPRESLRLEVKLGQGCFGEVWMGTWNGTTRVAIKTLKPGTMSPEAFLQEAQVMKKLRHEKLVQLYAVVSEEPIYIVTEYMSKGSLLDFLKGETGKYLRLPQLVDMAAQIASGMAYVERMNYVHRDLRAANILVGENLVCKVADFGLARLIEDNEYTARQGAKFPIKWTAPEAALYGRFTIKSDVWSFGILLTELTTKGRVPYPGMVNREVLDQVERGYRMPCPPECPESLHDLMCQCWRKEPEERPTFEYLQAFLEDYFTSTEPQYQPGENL

Row | SMILES | IC50 (Recombinant Src enzyme) [nM] | IC50 (JAK2) [nM] | IC50 (AURKB (Aurora B) enzyme) [nM] | EC50 [1] [µM] | IC50 (recombinant human FAK1) [nM]
1 | O=C1CCc2cc(Nc3cc4c(ccn4S(=O)(=O)c4ccccc4OC(F)(F)F)cn3)ccc2N1 [Example 59] | > 1000 | > 1000 | > 1000 | > 1 | –
2 | CN(c1ccccc1Cn1ccc2cnc(Nc3ccc(N4CCOCC4)cc3)nc21)S(C)(=O)=O [Example 111] | – | < 20 | – | > 1 | < 20
3 | COc1ccccc1Nc1ncc2ccn(Cc3cccnc3N(C)S(C)(=O)=O)c2n1 [Example 154] | > 1000 | > 1000 | > 1000 | > 1 | –
4 | N#Cc1ccccc1S(=O)(=O)n1ccc2cnc(Nc3ccc(N4CCNCC4)cc3)nc21 [Example 185] | – | < 20 | < 20 | > 1 | < 20
5 | O=S(=O)(c1cccc2cccnc12)n1ccc2cnc(Nc3ccc(N4CCNCC4)c(F)c3)nc21 [Example 194] | < 20 | < 20 | < 20 | – | < 20
6 | CN(C)S(=O)(=O)c1ccccc1Cn1ncc2cnc(Nc3ccc4c(c3)CCC(=O)N4)cc21 [Example 204] | – | < 20 | < 20 | > 1 | < 20
7 | CN(C)S(=O)(=O)c1ccccc1Cn1ncc2cnc(Nc3ccc(N4CCNCC4)cc3)cc21 [Example 208] | – | < 20 | – | > 1 | –
8 | C[C@@H]1CN(c2ccc(Nc3ncc4ccn(S(=O)(=O)c5cccc6cccnc56)c4n3)cc2)CCN1 [Example 213] | < 20 | < 20 | < 20 | – | < 20
9 | O=S(=O)(c1ccccc1)n1ccc2cnc(Nc3ccc(N4CCNCC4)cc3)nc21 [Example 224] | < 20 | < 20 | < 20 | > 1 | –
10 | C[C@@H]1CN(c2ccc(Nc3ncc4ccn(S(=O)(=O)c5ccccc5C#N)c4n3)cc2)CCN1 [Example 243] | – | < 20 | < 20 | > 1 | –
11 | C[C@H]1CN(c2ccc(Nc3ncc4ccn(S(=O)(=O)c5cccc(C#N)c5)c4n3)cc2)CCN1 [Example 306] | – | < 20 | < 20 | > 1 | –
12 | O=S(=O)(c1cccc2cccnc12)n1ccc2cnc(Nc3ccc(N4CCN(CCO)CC4)cc3)nc21 [Example 311] | < 20 | < 20 | < 20 | – | < 20
13 | C[C@H]1CNCCN1c1ccc(Nc2ncc3ccn(Cc4cccnc4N(C)S(C)(=O)=O)c3n2)cc1 [Example 320] | – | < 20 | – | > 1 | –
14 | COc1cc(N2CCNCC2)ccc1Nc1ncc2ccn(S(=O)(=O)c3cccc4cccnc34)c2n1 [Example 327] | > 1000 | > 1000 | < 20 | – | < 20
15 | O=S(=O)(c1cccc2cccnc12)n1ccc2cnc(Nc3ccc(N4CC5CC4CN5)cc3)cc21 (centres unmarked) [Example 329] | > 1000 | > 1000 | < 20 | – | < 20
16 | COc1cc(N2CCNCC2)ccc1Nc1cc2c(cn1)cnn2S(=O)(=O)c1cccc2cccnc12 [Example 338, N-(2-methoxy-4-(piperazin-1-yl)phenyl)-1-(quinolin-8-ylsulfonyl)-1H-pyrazolo[4,3-c]pyridin-6-amine] | > 1000 | > 1000 | – | < 0.02 | < 20
17 | COc1cc(N2CCC(O)CC2)ccc1Nc1ncc2ccn(S(=O)(=O)c3cccc4cccnc34)c2n1 [Example 356] | > 1000 | > 1000 | < 20 | – | < 20
18 | O=S(=O)(c1cccc2cccnc12)n1ccc2cnc(Nc3ccc(N4CCNCC4)cc3OC3CCC3)nc21 [Example 358] | > 1000 | > 1000 | – | > 1 | > 1000
19 | COc1cc(N2CCNCC2)ccc1Nc1ncc2c(n1)N(S(=O)(=O)c1cccc3cccnc13)CC2(C)C [Example 446] | > 1000 | > 1000 | > 1000 | – | < 20
20 | CN(c1ccccc1Cn1ccc2cnc(Nc3ccc(OC4CNC4)cc3)nc21)S(C)(=O)=O [Example 515] | – | < 20 | – | > 1 | –
